Source: patent US12486229B2, “Indole derivative and application thereof” (SHANGHAI MEDICILON INC., priority 2020, dated 2025)

Tests used:
[1] = test system: DSS induced ulcerative colitis in mice; assay: DSS induced ulcerative colitis in mice; assay type: in vivo; design: key to Total stool scores: sum of shape (1-3) and bleeding (1-3) levels; normal = 1 each; Colon length: unit not given here; conditions: for Colon length / Colon weight / Effect on blood stool and loose stool compared with model group: day 9; for Colon weight compared with model group: P<0.05
Description: Molecular weight of DSS dextran sodium sulfate: 36,000 to 50,000, From MP Biomedical Company.
Preparation of molding agent: preparation of 3.5% DSS: 49 g DSS plus 1,400 mL high-temperature sterilized water.
Source of SPF male C57BL/6 mice: Beijing Weitong Lihua Experimental Animal Technology Co., Ltd. • Animal age at the beginning of the experiment: 6 to 8 weeks; • Animal weight at the beginning of the experiment: 22 to 25 g; • Adaptation time: 3 to 5 days;
The mice were divided into groups according to their weight, 10 mice in each group. The mice were administrated once a day by gavage (or blank) according to the following Table 4.
Animals were given 3.5% DSS solution for free drinking water modeling (the day of modeling was recorded as day 1), and the modeling agent was replaced once every two days for 7 consecutive days, and then (day 8) 3.5% DSS was replaced with ordinary drinking water for another 1 day.
• Preparation of solvent 1: 0.66 mL DMSO, 1.32 mL Solutol and 11.22 mL Saline were mixed to prepare 13.2 mL of solvent 1; • Preparation of solvent 2: 0.3 mL DMSO, 0.6 mL Solutol and 5.1 mL Saline were mixed to prepare 6 mL of solvent 2; • Preparation of solution of compound of Example 3: 39.6 mg of compound of Example 3 was dissolved in 13.2 mL of solvent 1 to obtain the solution of compound 1 of Example 3, the solution 1 of compound of Example 3 was diluted with solvent 1 to prepare the solution of compound of Example 3 with concentrations of 2 mg/mL, 1 mg/mL, and 0.6 mg/mL; • Etrasimod solution: 6 mg of Etrasimod was dissolve in 6 mL of solvent 2 to obtain Etrasimod solution; • Ozanimod solution: 12 mg of […] was dissolved in 6 mL solvent 2 to obtain Ozanimod solution; • Note: Prepare once every two days, and store in refrigerator at 4° C.
Wherein, the purity of compound of Example 3 was 99.74%, Ozanimod and Etrasimod were prepared by the method described in Example 8, and the purities were 99.78% and 98.47% respectively.
The mouse stool was observed on its shape, bleeding condition every two days, and scored. Scoring criteria for stool condition: shape: normal (level 1), soft stool (level 2), and loose stool (level 3); traits: normal (level 1), faint redness (level 2), and bloody stool visible to the unaided eye (level 3).
After the last administration (8 consecutive days), the animals were dissected on the next day (day 9), the colon was separated, the whole colon was photographed, and the colon length was measured. Then the colon was cut longitudinally along the mesenteric side to remove the contents, which was weighed and observed on the integrity of the colonic mucosa. The colon was then fixed in 10% formalin.

S1P1 = biological target: T1, S1P1 (Homo sapiens, UniProt P21453); assay: S1P1 overexpression cell activity by β-arrestin assay (U2OS-EDG1); assay type: cell-based; conditions: U2OS-EDG1 cells
T1 construct: host or cells: U2OS (human osteosarcoma) cell line, U2OS-EDG1
T1 sequence (P21453 whole entry): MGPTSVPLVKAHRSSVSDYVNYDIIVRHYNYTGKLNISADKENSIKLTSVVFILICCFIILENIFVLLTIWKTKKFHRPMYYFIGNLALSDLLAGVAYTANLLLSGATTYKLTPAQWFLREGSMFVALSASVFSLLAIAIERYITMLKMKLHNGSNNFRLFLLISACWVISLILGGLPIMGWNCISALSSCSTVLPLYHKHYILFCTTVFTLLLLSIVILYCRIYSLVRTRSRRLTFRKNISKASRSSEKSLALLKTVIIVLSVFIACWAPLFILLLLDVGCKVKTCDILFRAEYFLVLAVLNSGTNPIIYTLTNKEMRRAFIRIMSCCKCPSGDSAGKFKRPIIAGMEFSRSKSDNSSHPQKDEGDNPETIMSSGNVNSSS
Description: The following experiments were conducted to detect the activity of the compound on S1P1 overexpression cells by β-arrestin assay. [table] [table] 3. Experimental Steps Day 1: Cell Seeding Plate and Compound Treatment • (1) Firstly, the compound was diluted by a 4-fold gradient into 10 concentration points from the concentration of 10 μM in the culture plate by using NL fluid transfer system, with 2 replicates at each concentration point. • (2) Cells were resuspended by using FreeStyle™ expression medium, and the cell density was adjusted to 7,500 cells per 40 μL suspension. The samples with test concentration were added into the well of the cell culture plate, and 40 μL cell suspension was added into the corresponding well. • (3) The above cell plates were incubated overnight in a CO2 incubator with 5% (volume fraction) at 37° C. Day 2: Detection and Data Analysis • (1) The buffer solution was prepared according to the preparation method in the instructions of LiveBLAser™-fluorescence resonance energy transfer B/G loading kit. • (2) 8 μL detection reagent was added to each well, which were shaken and mixed evenly for 1 minute, centrifugated at 1,000 rpm for 10 seconds, and incubated at 23° C. in dark for 2 hours. • 3) Detection was performed by multimode reader. • 4) The PrismDemo software was used to analyze the data and fit the curve. 4. Experimental Results

[2] = 6 mg/kg oral gavage once a day for 8 days
[3] = 10 mg/kg oral gavage once a day for 8 days
[4] = 20 mg/kg oral gavage once a day for 8 days
[5] = 30 mg/kg oral gavage once a day for 8 days
[6] = Day 1, 10 mg/kg oral gavage once a day
[7] = Day 2, 10 mg/kg oral gavage once a day
[8] = Day 3, 10 mg/kg oral gavage once a day
[9] = Day 4, 10 mg/kg oral gavage once a day
[10] = Day 5, 10 mg/kg oral gavage once a day
[11] = Day 6, 10 mg/kg oral gavage once a day
[12] = Day 7, 6 mg/kg oral gavage once a day
[13] = Day 7, 10 mg/kg oral gavage once a day
[14] = Day 7, 20 mg/kg oral gavage once a day
[15] = Day 7, 30 mg/kg oral gavage once a day
[16] = Day 8, 6 mg/kg oral gavage once a day
[17] = Day 8, 10 mg/kg oral gavage once a day
[18] = Day 8, 20 mg/kg oral gavage once a day
[19] = Day 8, 30 mg/kg oral gavage once a day
[20] = Day 9, 6 mg/kg oral gavage once a day
[21] = Day 9, 10 mg/kg oral gavage once a day
[22] = Day 9, 20 mg/kg oral gavage once a day
[23] = Day 9, 30 mg/kg oral gavage once a day

O=C(O)CCn1ccc2cc(OCc3ccc(C4CCCC4)c(C(F)(F)F)c3)cc(Cl)c21 [Compound of Example 3, 3-(7-chlorine-5-((4-cyclopentyl-3-(trifluoromethyl)benzyl)oxy)-1H-indole-1-yl)propionic acid]
Colon length [1, 2]: 39.061 ± 1.17 | Colon weight [1, 2]: 0.164 ± 0.01 g | Colon weight compared with model group ([1]; 6 mg/kg): statistically significant difference compared with that of the model group | Effect on blood stool and loose stool compared with model group ([1]; 6 mg/kg): significantly improving blood stool and loose stool | Colon length [1, 3]: 39.638 ± 0.76 | Colon weight [1, 3]: 0.164 ± 0.01 g | Colon weight compared with model group ([1]; 10 mg/kg): statistically significant difference compared with that of the model group | Effect on blood stool and loose stool compared with model group ([1]; 10 mg/kg): significantly improving blood stool and loose stool | Colon length compared with model group ([1]; 20 mg/kg): longer than that of the model group | Colon length [1, 4]: 44.892 ± 1.83 | Colon weight [1, 4]: 0.163 ± 0.01 g | Colon weight compared with model group ([1]; 20 mg/kg): statistically significant difference compared with that of the model group | Effect on blood stool and loose stool compared with model group ([1]; 20 mg/kg): significantly improving blood stool and loose stool | Colon length compared with model group ([1]; 30 mg/kg): longer than that of the model group | Colon length [1, 5]: 41.311 ± 1.25 | Colon weight [1, 5]: 0.162 ± 0.01 g | Effect on blood stool and loose stool compared with model group ([1]; 30 mg/kg): significantly improving blood stool and loose stool | Weight ([1]; Day 1, 6 mg/kg oral gavage once a day): 21.3 ± 0.26 g | Weight [1, 6]: 21.9 ± 0.2 g | Weight ([1]; Day 1, 20 mg/kg oral gavage once a day): 21.2 ± 0.34 g | Weight ([1]; Day 1, 30 mg/kg oral gavage once a day): 21.5 ± 0.17 g | Weight ([1]; Day 2, 6 mg/kg oral gavage once a day): 21.5 ± 0.27 g | Weight [1, 7]: 22.1 ± 0.2 g | Weight ([1]; Day 2, 20 mg/kg oral gavage once a day): 21.7 ± 0.29 g | Weight ([1]; Day 2, 30 mg/kg oral gavage once a day): 21.9 ± 0.17 g | Weight ([1]; Day 3, 6 mg/kg oral gavage once a day): 21.1 ± 0.3 g | Weight [1, 8]: 21.4 ± 0.32 g | Weight ([1]; Day 3, 20 mg/kg oral gavage once a day): 21.5 ± 0.33 g | Weight ([1]; Day 3, 30 mg/kg oral gavage once a day): 21.4 ± 0.34 g | Weight ([1]; Day 4, 6 mg/kg oral gavage once a day): 20.9 ± 0.47 g | Weight [1, 9]: 21.3 ± 0.46 g | Weight ([1]; Day 4, 20 mg/kg oral gavage once a day): 21.8 ± 0.34 g | Weight ([1]; Day 4, 30 mg/kg oral gavage once a day): 21.1 ± 0.4 g | Weight ([1]; Day 5, 6 mg/kg oral gavage once a day): 21.1 ± 0.25 g | Weight [1, 10]: 21.0 ± 0.6 g | Weight ([1]; Day 5, 20 mg/kg oral gavage once a day): 21.5 ± 0.33 g | Weight ([1]; Day 5, 30 mg/kg oral gavage once a day): 21.1 ± 0.39 g | Weight ([1]; Day 6, 6 mg/kg oral gavage once a day): 20.5 ± 0.25 g | Weight [1, 11]: 20.4 ± 0.45 g | Weight ([1]; Day 6, 20 mg/kg oral gavage once a day): 20.3 ± 0.48 g | Weight ([1]; Day 6, 30 mg/kg oral gavage once a day): 20.1 ± 0.58 g | Total stool scores [1, 12]: 5.6 ± 0.17 | Weight [1, 12]: 19.2 ± 0.23 g | Total stool scores [1, 13]: 5.7 ± 0.22 | Weight [1, 13]: 19 ± 0.46 g | Total stool scores [1, 14]: 5.7 ± 0.21 | Weight [1, 14]: 19 ± 0.46 g | Total stool scores [1, 15]: 5.4 ± 0.32 | Weight [1, 15]: 19.5 ± 0.52 g | Total stool scores [1, 16]: 5.9 ± 0.11 | Weight [1, 16]: 18.1 ± 0.38 g | Total stool scores [1, 17]: 5.7 ± 0.22 | Weight [1, 17]: 17.8 ± 0.4 g | Total stool scores [1, 18]: 5.9 ± 0.11 | Weight [1, 18]: 17.4 ± 0.58 g | Total stool scores [1, 19]: 5.6 ± 0.23 | Weight [1, 19]: 18.4 ± 0.51 g | Total stool scores [1, 20]: 4.6 ± 0 | Weight [1, 20]: 16.3 ± 0.33 g | Total stool scores [1, 21]: 4.8 ± 0.26 | Weight [1, 21]: 16.2 ± 0.3 g | Total stool scores [1, 22]: 4.8 ± 0.31 | Weight [1, 22]: 16.5 ± 0.4 g | Total stool scores [1, 23]: 4.6 ± 0.39 | Weight [1, 23]: 17.2 ± 0.48 g | Effect on colon atrophy ([1]; oral gavage for 8 consecutive days, 6-30 mg/kg): certain inhibitory effect on colon atrophy | IC50 (S1P1): 0.148 nM

O=C(O)C[C@H]1CCc2c1[nH]c1ccc(OCc3ccc(C4CCCC4)c(C(F)(F)F)c3)cc21 [Etrasimod, reference compound]
Colon weight [1, 3]: 0.169 ± 0.01 g | Colon weight compared with model group ([1]; 10 mg/kg): statistically significant difference compared with that of the model group | Effect on blood stool and loose stool compared with model group ([1]; 10 mg/kg): had not significant improvement | Weight [1, 6]: 21.0 ± 0.26 g | Weight [1, 7]: 21.6 ± 0.24 g | Weight [1, 8]: 21.4 ± 0.25 g | Weight [1, 9]: 21.7 ± 0.29 g | Weight [1, 10]: 21.2 ± 0.27 g | Weight [1, 11]: 20.5 ± 0.22 g | Total stool scores [1, 13]: 6.0 ± 0 | Weight [1, 13]: 19.2 ± 0.26 g | Total stool scores [1, 17]: 5.9 ± 0.11 | Weight [1, 17]: 18.0 ± 0.3 g | Total stool scores [1, 21]: 5.6 ± 0 | Weight [1, 21]: 16.6 ± 0.26 g | IC50 (S1P1): 4.71 nM
